What was measured:
Format in all cases: functional
[1] = test system: HL-60(TB); test: Cytotoxicity against human HL-60(TB) cells after 48 hrs by SRB assay; conditions: HL-60, 48 h; for CC50: read-out: pLC50 (the source's name) (converted)
[2] = test system: NCI-H522; test: Cytotoxicity against human NCI-H522 cells after 48 hrs by SRB assay; conditions: NCI-H522, 48 h
[3] = test system: SF-295; test: Cytotoxicity against human SF295 cells after 48 hrs by SRB assay; conditions: SF-295, 48 h
[4] = test system: SK-MEL-5; test: Cytotoxicity against human SK-MEL-5 cells after 48 hrs by SRB assay; conditions: SK-MEL-5, 48 h
[5] = test system: UACC-257; test: Cytotoxicity against human UACC257 cells after 48 hrs by SRB assay; conditions: UACC-257, 48 h; for CC50: read-out: LC50 (the source's name)
[6] = test system: IGROV-1; test: Cytotoxicity against human IGROV1 cells after 48 hrs by SRB assay; conditions: IGROV-1, 48 h; for CC50: read-out: LC50 (the source's name)
[7] = test system: OVCAR-3; test: Cytotoxicity against human OVCAR3 cells after 48 hrs by SRB assay; conditions: OVCAR-3, 48 h
[8] = test system: OVCAR-8; test: Cytotoxicity against human OVCAR8 cells after 48 hrs by SRB assay; conditions: OVCAR-8, 48 h
[9] = test system: MOLT-4; test: Growth inhibition of human MOLT4 cells assessed as cell growth at 10^-8 M incubated for 48 hrs by sulforhodamine B assay relative to control; conditions: MOLT-4, 48 h, read-out: Activity
[10] = test system: RPMI-8226; test: Growth inhibition of human RPMI8226 cells assessed as cell growth at 10^-8 M incubated for 48 hrs by sulforhodamine B assay relative to control; conditions: RPMI-8226, 48 h, read-out: Activity
[11] = test system: A549; test: Growth inhibition of human A549/ATCC cells assessed as cell growth at 10^-8 M incubated for 48 hrs by sulforhodamine B assay relative to control; conditions: A549, 48 h, read-out: Activity
[12] = test system: HOP-92; test: Growth inhibition of human HOP92 cells assessed as cell growth at 10^-8 M incubated for 48 hrs by sulforhodamine B assay relative to control; conditions: HOP-92, 48 h, read-out: Activity
[13] = test system: NCI-H322M; test: Growth inhibition of human NCI-H322M cells assessed as cell growth at 10^-8 M incubated for 48 hrs by sulforhodamine B assay relative to control; conditions: read-out: Activity
[14] = test system: HCT-116; test: Growth inhibition of human HCT116 cells assessed as cell growth at 10^-8 M incubated for 48 hrs by sulforhodamine B assay relative to control; conditions: HCT-116, 48 h, read-out: Activity
[15] = test system: IGROV-1; test: Growth inhibition of human IGROV1 cells assessed as cell growth at 10^-8 M incubated for 48 hrs by sulforhodamine B assay relative to control; conditions: IGROV-1, 48 h, read-out: Activity
[16] = test system: OVCAR-3; test: Growth inhibition of human OVCAR3 cells assessed as cell growth at 10^-8 M incubated for 48 hrs by sulforhodamine B assay relative to control; conditions: OVCAR-3, 48 h, read-out: Activity
[17] = test system: NCI/ADR-RES; test: Growth inhibition of human NCI/ADR-RES cells assessed as cell growth at 10^-8 M incubated for 48 hrs by sulforhodamine B assay relative to control; conditions: read-out: Activity
[18] = test system: SN12C; test: Growth inhibition of human SN12C cells assessed as cell growth at 10^-8 M incubated for 48 hrs by sulforhodamine B assay relative to control; conditions: read-out: Activity
[19] = test system: MOLT-4; test: Growth inhibition of human MOLT4 cells assessed as cell growth at 10^-7 M incubated for 48 hrs by sulforhodamine B assay relative to control; conditions: MOLT-4, 48 h, read-out: Activity
[20] = test system: NCI-H226; test: Growth inhibition of human NCI-H226 cells assessed as cell growth at 10^-7 M incubated for 48 hrs by sulforhodamine B assay relative to control; conditions: NCI-H226, 48 h, read-out: Activity
[21] = test system: NCI-H322M; test: Growth inhibition of human NCI-H322M cells assessed as cell growth at 10^-7 M incubated for 48 hrs by sulforhodamine B assay relative to control; conditions: read-out: Activity
[22] = test system: OVCAR-3; test: Growth inhibition of human OVCAR3 cells assessed as cell growth at 10^-7 M incubated for 48 hrs by sulforhodamine B assay relative to control; conditions: OVCAR-3, 48 h, read-out: Activity
[23] = test system: UO-31; test: Growth inhibition of human UO31 cells assessed as cell growth at 10^-7 M incubated for 48 hrs by sulforhodamine B assay relative to control; conditions: UO-31, 48 h, read-out: Activity
[24] = test system: OVCAR-8; test: Growth inhibition of human OVCAR8 cells assessed as cell growth at 10^-6 M incubated for 48 hrs by sulforhodamine B assay relative to control; conditions: OVCAR-8, 48 h, read-out: Activity
[25] = test system: K562; test: Growth inhibition of human K562 cells assessed as cell growth at 10^-5 M incubated for 48 hrs by sulforhodamine B assay relative to control; conditions: K562, 48 h, read-out: Activity
[26] = test system: KM12; test: Growth inhibition of human KM12 cells assessed as cell growth at 10^-5 M incubated for 48 hrs by sulforhodamine B assay relative to control; conditions: KM12, 48 h, read-out: Activity
[27] = test system: SN12C; test: Growth inhibition of human SN12C cells assessed as cell growth at 10^-5 M incubated for 48 hrs by sulforhodamine B assay relative to control; conditions: read-out: Activity
[28] = test system: Hs-578T; test: Growth inhibition of human Hs 578T cells assessed as cell growth at 10^-5 M incubated for 48 hrs by sulforhodamine B assay relative to control; conditions: read-out: Activity
[29] = test system: HCT-116; test: Growth inhibition of human HCT116 cells assessed as cell growth at 10^-4 M incubated for 48 hrs by sulforhodamine B assay relative to control; conditions: HCT-116, 48 h, read-out: Activity
[30] = test system: HT-29; test: Growth inhibition of human HT-29 cells assessed as cell growth at 10^-4 M incubated for 48 hrs by sulforhodamine B assay relative to control; conditions: HT-29, 48 h, read-out: Activity
[31] = test system: 786-0; test: Cytotoxicity against human 786-0 cells after 48 hrs by SRB assay; conditions: 786-0, 48 h
[32] = read-out: LC50 (the source's name)
[33] = read-out: pLC50 (the source's name) (converted)

## C#C[C@@]1(O)[C@@H](CO)O[C@@H](n2cc(F)c3c(N)ncnc32)[C@@H]1O
[1]; read-out: TGI
  TGI: 3.53 µM
[1]; read-out: pGI50 (converted)
  GI50: 0.437 µM
[1]
  CC50: > 100 µM
[1]; read-out: pTGI (converted)
  TGI: 3.55 µM
[2]; read-out: GI50
  GI50: 0.18 µM
[2]; [32]
  CC50: > 100 µM
[2]; read-out: TGI
  TGI: 0.929 µM
[2]; read-out: pGI50 (converted)
  GI50: 0.178 µM
[2]; read-out: pTGI (converted)
  TGI: 0.933 µM
[3]; read-out: TGI
  TGI: 2.33 µM
[3]; read-out: pGI50 (converted)
  GI50: 0.646 µM
[3]; [33]
  CC50: 6.76 µM
[3]; read-out: pTGI (converted)
  TGI: 2.34 µM
[4]; read-out: TGI
  TGI: 1.33 µM
[4]; read-out: pGI50 (converted)
  GI50: 0.269 µM
[4]; [33]
  CC50: 4.17 µM
[4]; read-out: pTGI (converted)
  TGI: 1.35 µM
[5]
  CC50: > 100 µM
[5]; read-out: TGI
  TGI: 4.64 µM
[5]; read-out: pGI50 (converted)
  GI50: 0.49 µM
[5]; read-out: pTGI (converted)
  TGI: 4.68 µM
[6]
  CC50: > 100 µM
[6]; read-out: TGI
  TGI: 1.42 µM
[6]; read-out: pGI50 (converted)
  GI50: 0.324 µM
[6]; read-out: pTGI (converted)
  TGI: 1.41 µM
[7]; [32]
  CC50: > 100 µM
[7]; read-out: TGI
  TGI: > 100 µM
[7]; read-out: pGI50 (converted)
  GI50: 1.12 µM
[7]; read-out: pTGI (converted)
  TGI: > 100 µM
[8]; read-out: TGI
  TGI: 3.69 µM
[8]; read-out: pGI50 (converted)
  GI50: 0.257 µM
[8]; [33]
  CC50: > 100 µM
[8]; read-out: pTGI (converted)
  TGI: 3.72 µM
[9]
  growth at 0.01 µM: 99%
[10]
  growth at 0.01 µM: 94%
[11]
  growth at 0.01 µM: 93%
[12]
  growth at 0.01 µM: 121%
[13]
  growth at 0.01 µM: 93%
[14]
  growth at 0.01 µM: 98%
[15]
  growth at 0.01 µM: 105%
[16]
  growth at 0.01 µM: 106%
[17]
  growth at 0.01 µM: 100%
[18]
  growth at 0.01 µM: 94%
[19]
  growth at 0.1 µM: 86%
[20]
  growth at 0.1 µM: 95%
[21]
  growth at 0.1 µM: 94%
[22]
  growth at 0.1 µM: 107%
[23]
  growth at 0.1 µM: 104%
[24]
  growth at 1 µM: 15%
[25]
  growth at 10 µM: 8%
[26]
  growth at 10 µM: 7%
[27]
  growth at 10 µM: -8%
[28]
  growth at 10 µM: 18%
[29]
  growth at 100 µM: 1%
[30]
  growth at 100 µM: 2%
[31]; read-out: TGI
  TGI: 2.84 µM
[31]; read-out: pGI50 (converted)
  GI50: 0.708 µM
[31]; read-out: pTGI (converted)
  TGI: 2.82 µM

## C#C[C@@]1(O)[C@@H](CO)O[C@@H](n2cc(Cl)c3c(N)ncnc32)[C@@H]1O
[1]; read-out: GI50
  GI50: 0.0341 to 0.084 µM
[1]; read-out: TGI
  TGI: 0.197 to 0.317 µM
[1]
  CC50: > 100 µM
[2]; read-out: GI50
  GI50: 0.0816 to 0.134 µM
[2]; read-out: TGI
  TGI: 0.276 to 0.455 µM
[2]; [33]
  CC50: > 100 µM
[3]; read-out: GI50
  GI50: 0.202 to 0.298 µM
[3]; [32]
  CC50: > 100 µM
[3]; read-out: TGI
  TGI: 1.9 to 3.2 µM
[4]; read-out: GI50
  GI50: 0.109 to 0.14 µM
[4]; read-out: TGI
  TGI: 0.268 to 0.343 µM
[5]; read-out: GI50
  GI50: 0.27 to 0.446 µM
[5]
  CC50: > 100 µM
[5]; read-out: TGI
  TGI: 63.8 to 100 µM
[6]; read-out: GI50
  GI50: 0.123 to 0.145 µM
[6]
  CC50: > 100 µM
[6]; read-out: TGI
  TGI: 0.475 µM
[6]; read-out: pTGI (converted)
  TGI: 0.479 µM
[7]; read-out: GI50
  GI50: 0.228 to 0.237 µM
[7]; read-out: TGI
  TGI: 1.6 to 2.01 µM
[7]; [33]
  CC50: > 100 µM
[8]; read-out: GI50
  GI50: 0.0102 to 0.0336 µM
[8]; [32]
  CC50: > 100 µM
[8]; read-out: TGI
  TGI: 0.73 to 1.48 µM
[9]
  growth at 0.01 µM: 81 to 83%
[10]
  growth at 0.01 µM: 99 to 100%
[11]
  growth at 0.01 µM: 98 to 105%
[12]
  growth at 0.01 µM: 90 to 97%
[13]
  growth at 0.01 µM: 93 to 100%
[14]
  growth at 0.01 µM: 67 to 73%
[15]
  growth at 0.01 µM: 91 to 94%
[16]
  growth at 0.01 µM: 97 to 101%
[17]
  growth at 0.01 µM: 77 to 82%
[18]
  growth at 0.01 µM: 85 to 90%
[19]
  growth at 0.1 µM: 62 to 67%
[20]
  growth at 0.1 µM: 102 to 108%
[21]
  growth at 0.1 µM: 67 to 80%
[22]
  growth at 0.1 µM: 74 to 77%
[23]
  growth at 0.1 µM: 61 to 69%
[25]
  growth at 10 µM: 5 to 7%
[26]
  growth at 10 µM: 5 to 9%
[29]
  growth at 100 µM: 3 to 4%
[30]
  growth at 100 µM: 1%
[31]; read-out: GI50
  GI50: 0.308 to 0.336 µM
[31]; read-out: LC50
  LC50 (lethal concentration, 50% cell kill): 5.21 to 5.7 µM
[31]; read-out: TGI
  TGI: 1.31 to 1.34 µM

Source: ChEMBL document CHEMBL4270599, “Synthesis of a 3'-C-ethynyl-β-d-ribofuranose purine nucleoside library: Discovery of C7-deazapurine analogs as potent antiproliferative nucleosides” (Eur J Med Chem, 2018)
